In US6355799B1, “Substituted benzene compounds, process for their preparation, and herbicidal and defoliant compositions containing them” (ISK Americas Incorporated, priority 1997, dated 2002):

Tests used:
Type in all cases: in vivo
[1] = system: redroot pigweed (Amaranthus retroflexus, AMARE); test: Pre-emerge test, greenhouse herbicide activity screening; conditions: pre-emerge, rated 14 days after application, 0 = no damage, 100 = complete death
Outline: (§1)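 Rating: 0–100 visual injury, 14 DAA. Application: acetone, 187 l/ha, 15–1000 g ai/ha, flat-fan track sprayer with nozzle 40–45 cm above soil or canopy. Post-emerge runs used 0.25% v/v surfactant on 2–3 leaf plants.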

[2] = system: barnyardgrass (Echinochloa crus-galli, ECHCG); test: as above; conditions: pre-emerge, rated 14 days after application, 0 = no damage, 100 = complete death
Outline: (§2)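 Compounds in acetone were track-sprayed at 15-1000 g ai/ha (187 l/ha) on sandy loam pots: pre-emerge one day after seeding, post-emerge at 2-3 leaf stage with 0.25% v/v non-ionic surfactant. Phytotoxicity was rated 14 days later on a 0 (no damage) to 100 (complete death) scale.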

[3] = system: green foxtail (Setaria viridis, SETVI); test: as above; conditions: pre-emerge, rated 14 days after application, 0 = no damage, 100 = complete death
Outline: as §2

[4] = system: ivyleaf morningglory (Ipomoea hederacea, IPOHE); test: as above; conditions: pre-emerge, rated 14 days after application, 0 = no damage, 100 = complete death
Outline: as §2

[5] = system: johnsongrass (Sorghum halepense, SORHA); test: as above; conditions: pre-emerge, rated 14 days after application, 0 = no damage, 100 = complete death
Outline: as §2

[6] = system: lambsquarters (Chenopodium album, CHEAL); test: as above; conditions: pre-emerge, rated 14 days after application, 0 = no damage, 100 = complete death
Outline: as §2

[7] = system: large crabgrass (Digitaria sanguinalis, DIGSA); test: as above; conditions: pre-emerge, rated 14 days after application, 0 = no damage, 100 = complete death
Outline: as §2

[8] = system: sicklepod (Cassia obtusifolia, CASOB); test: as above; conditions: pre-emerge, rated 14 days after application, 0 = no damage, 100 = complete death
Outline: as §2

[9] = system: velvetleaf (Abutilon theophrasti, ABUTH); test: as above; conditions: pre-emerge, rated 14 days after application, 0 = no damage, 100 = complete death
Outline: as §2

[10] = system: field corn (Zea mays L., var. Dekalb 535, CORN); test: Pre-emerge test, crop safety; conditions: pre-emerge, rated 14 days after application, 0 = no damage, 100 = complete death
Outline: as §1

[11] = system: upland rice (Oryza sp., var. Tebonnet, RICE); test: Pre-emerge test, crop safety; conditions: pre-emerge, rated 14 days after application, 0 = no damage, 100 = complete death
Outline: as §1

[12] = system: barnyardgrass (Echinochloa crus-galli, ECHCG); test: Post-emerge test, greenhouse herbicide activity screening; conditions: phytotoxicity rating 0-100 (0 no damage, 100 complete death), 14 days after application
Outline: as §2

[13] = system: common ragweed (Ambrosia artemisizfolia L., AMBEL); test: as above; conditions: phytotoxicity rating 0-100 (0 no damage, 100 complete death), 14 days after application
Outline: as §2

[14] = system: green foxtail (Setaria viridis, SETVI); test: as above; conditions: phytotoxicity rating 0-100 (0 no damage, 100 complete death), 14 days after application
Outline: as §2

[15] = system: ivyleaf morningglory (Ipomoea hederacea, IPOHE); test: as above; conditions: phytotoxicity rating 0-100 (0 no damage, 100 complete death), 14 days after application
Outline: as §2

[16] = system: johnsongrass (Sorghum halepense, SORHA); test: as above; conditions: phytotoxicity rating 0-100 (0 no damage, 100 complete death), 14 days after application
Outline: as §2

[17] = system: lambsquarters (Chenopodium album, CHEAL); test: as above; conditions: phytotoxicity rating 0-100 (0 no damage, 100 complete death), 14 days after application
Outline: as §2

[18] = system: large crabgrass (Digitaria sanguinalis, DIGSA); test: as above; conditions: phytotoxicity rating 0-100 (0 no damage, 100 complete death), 14 days after application
Outline: as §2

[19] = system: redroot pigweed (Amaranthus retroflexus, AMARE); test: as above; conditions: phytotoxicity rating 0-100 (0 no damage, 100 complete death), 14 days after application
Outline: as §2

[20] = system: sicklepod (Cassia obtusifolia, CASOB); test: as above; conditions: phytotoxicity rating 0-100 (0 no damage, 100 complete death), 14 days after application
Outline: as §2

[21] = system: velvetleaf (Abutilon theophrasti, ABUTH); test: as above; conditions: phytotoxicity rating 0-100 (0 no damage, 100 complete death), 14 days after application
Outline: as §2

[22] = system: field corn (Zea mays L., var. Dekalb 535, CORN); test: Post-emerge test, crop safety; conditions: phytotoxicity rating 0-100 (0 no damage, 100 complete death), 14 days after application
Outline: as §2

[23] = system: upland rice (Oryza sp., var. Tebonnet, RICE); test: Post-emerge test, crop safety; conditions: phytotoxicity rating 0-100 (0 no damage, 100 complete death), 14 days after application
Outline: as §2

CCOC(=O)C(C)Nc1c(OC)c(Cl)cc(F)c1-n1c(=O)cc(C(F)(F)F)n(C)c1=O (centres unmarked) [Compound 1-55]
Pre-emerge Herbicidal Activity AMARE (phytotoxicity rating, scale 0-100) ([1]; 63 g ai/ha): 70 | Pre-emerge Herbicidal Activity AMARE (phytotoxicity rating, scale 0-100) ([1]; 250 g ai/ha): 70 | Pre-emerge Herbicidal Activity ECHCG (phytotoxicity rating, scale 0-100) ([2]; 63 g ai/ha): 10 | Pre-emerge Herbicidal Activity ECHCG (phytotoxicity rating, scale 0-100) ([2]; 250 g ai/ha): 10 | Pre-emerge Herbicidal Activity SETVI (phytotoxicity rating, scale 0-100) ([3]; 63 g ai/ha): 0 | Pre-emerge Herbicidal Activity SETVI (phytotoxicity rating, scale 0-100) ([3]; 250 g ai/ha): 0 | Pre-emerge Herbicidal Activity IPOHE (phytotoxicity rating, scale 0-100) ([4]; 63 g ai/ha): 0 | Pre-emerge Herbicidal Activity IPOHE (phytotoxicity rating, scale 0-100) ([4]; 250 g ai/ha): 0 | Pre-emerge Herbicidal Activity SORHA (phytotoxicity rating, scale 0-100) ([5]; 63 g ai/ha): 20 | Pre-emerge Herbicidal Activity SORHA (phytotoxicity rating, scale 0-100) ([5]; 250 g ai/ha): 20 | Pre-emerge Herbicidal Activity CHEAL (phytotoxicity rating, scale 0-100) ([6]; 63 g ai/ha): 95 | Pre-emerge Herbicidal Activity CHEAL (phytotoxicity rating, scale 0-100) ([6]; 250 g ai/ha): 95 | Pre-emerge Herbicidal Activity DIGSA (phytotoxicity rating, scale 0-100) ([7]; 63 g ai/ha): 50 | Pre-emerge Herbicidal Activity DIGSA (phytotoxicity rating, scale 0-100) ([7]; 250 g ai/ha): 50 | Pre-emerge Herbicidal Activity CASOB (phytotoxicity rating, scale 0-100) ([8]; 63 g ai/ha): 0 | Pre-emerge Herbicidal Activity CASOB (phytotoxicity rating, scale 0-100) ([8]; 250 g ai/ha): 0 | Pre-emerge Herbicidal Activity ABUTH (phytotoxicity rating, scale 0-100) ([9]; 63 g ai/ha): 90 | Pre-emerge Herbicidal Activity ABUTH (phytotoxicity rating, scale 0-100) ([9]; 250 g ai/ha): 90 | Pre-emerge crop damage CORN (phytotoxicity rating, scale 0-100) ([10]; 63 g ai/ha): 10 | Pre-emerge crop damage CORN (phytotoxicity rating, scale 0-100) ([10]; 250 g ai/ha): 10 | Pre-emerge crop damage RICE (phytotoxicity rating, scale 0-100) ([11]; 63 g ai/ha): 0 | Pre-emerge crop damage RICE (phytotoxicity rating, scale 0-100) ([11]; 250 g ai/ha): 0 | Post-emerge Herbicidal Activity ECHCG ([12]; 63 g ai/ha): 0 | Post-emerge Herbicidal Activity ECHCG ([12]; 250 g ai/ha): 0 | Post-emerge Herbicidal Activity AMBEL ([13]; 63 g ai/ha): 70 | Post-emerge Herbicidal Activity AMBEL ([13]; 250 g ai/ha): 50 | Post-emerge Herbicidal Activity SETVI ([14]; 63 g ai/ha): 0 | Post-emerge Herbicidal Activity SETVI ([14]; 250 g ai/ha): 40 | Post-emerge Herbicidal Activity IPOHE ([15]; 63 g ai/ha): 30 | Post-emerge Herbicidal Activity IPOHE ([15]; 250 g ai/ha): 95 | Post-emerge Herbicidal Activity SORHA ([16]; 63 g ai/ha): 0 | Post-emerge Herbicidal Activity SORHA ([16]; 250 g ai/ha): 0 | Post-emerge Herbicidal Activity CHEAL ([17]; 63 g ai/ha): 0 | Post-emerge Herbicidal Activity CHEAL ([17]; 250 g ai/ha): 20 | Post-emerge Herbicidal Activity DIGSA ([18]; 63 g ai/ha): 0 | Post-emerge Herbicidal Activity DIGSA ([18]; 250 g ai/ha): 30 | Post-emerge Herbicidal Activity AMARE ([19]; 63 g ai/ha): 10 | Post-emerge Herbicidal Activity AMARE ([19]; 250 g ai/ha): 10 | Post-emerge Herbicidal Activity CASOB ([20]; 63 g ai/ha): 10 | Post-emerge Herbicidal Activity CASOB ([20]; 250 g ai/ha): 20 | Post-emerge Herbicidal Activity ABUTH ([21]; 63 g ai/ha): 80 | Post-emerge Herbicidal Activity ABUTH ([21]; 250 g ai/ha): 90 | Post-emerge Herbicidal Activity CORN (crop damage) ([22]; 63 g ai/ha): 0 | Post-emerge Herbicidal Activity CORN (crop damage) ([22]; 250 g ai/ha): 10 | Post-emerge Herbicidal Activity RICE (crop damage) ([23]; 63 g ai/ha): 0 | Post-emerge Herbicidal Activity RICE (crop damage) ([23]; 250 g ai/ha): 0

CC(C)Oc1c(Cl)cc(F)c(-n2c(=O)cc(C(F)(F)F)n(C)c2=O)c1N [Compound 1-63]
Pre-emerge Herbicidal Activity AMARE (phytotoxicity rating, scale 0-100) ([1]; 63 g ai/ha): 100 | Pre-emerge Herbicidal Activity AMARE (phytotoxicity rating, scale 0-100) ([1]; 250 g ai/ha): 100 | Pre-emerge Herbicidal Activity ECHCG (phytotoxicity rating, scale 0-100) ([2]; 63 g ai/ha): 40 | Pre-emerge Herbicidal Activity ECHCG (phytotoxicity rating, scale 0-100) ([2]; 250 g ai/ha): 100 | Pre-emerge Herbicidal Activity SETVI (phytotoxicity rating, scale 0-100) ([3]; 63 g ai/ha): 95 | Pre-emerge Herbicidal Activity SETVI (phytotoxicity rating, scale 0-100) ([3]; 250 g ai/ha): 100 | Pre-emerge Herbicidal Activity IPOHE (phytotoxicity rating, scale 0-100) ([4]; 63 g ai/ha): 20 | Pre-emerge Herbicidal Activity IPOHE (phytotoxicity rating, scale 0-100) ([4]; 250 g ai/ha): 95 | Pre-emerge Herbicidal Activity SORHA (phytotoxicity rating, scale 0-100) ([5]; 63 g ai/ha): 50 | Pre-emerge Herbicidal Activity SORHA (phytotoxicity rating, scale 0-100) ([5]; 250 g ai/ha): 99 | Pre-emerge Herbicidal Activity CHEAL (phytotoxicity rating, scale 0-100) ([6]; 63 g ai/ha): 100 | Pre-emerge Herbicidal Activity CHEAL (phytotoxicity rating, scale 0-100) ([6]; 250 g ai/ha): 100 | Pre-emerge Herbicidal Activity DIGSA (phytotoxicity rating, scale 0-100) ([7]; 63 g ai/ha): 80 | Pre-emerge Herbicidal Activity DIGSA (phytotoxicity rating, scale 0-100) ([7]; 250 g ai/ha): 100 | Pre-emerge Herbicidal Activity CASOB (phytotoxicity rating, scale 0-100) ([8]; 63 g ai/ha): 20 | Pre-emerge Herbicidal Activity CASOB (phytotoxicity rating, scale 0-100) ([8]; 250 g ai/ha): 90 | Pre-emerge Herbicidal Activity ABUTH (phytotoxicity rating, scale 0-100) ([9]; 63 g ai/ha): 100 | Pre-emerge Herbicidal Activity ABUTH (phytotoxicity rating, scale 0-100) ([9]; 250 g ai/ha): 100 | Pre-emerge crop damage CORN (phytotoxicity rating, scale 0-100) ([10]; 63 g ai/ha): 10 | Pre-emerge crop damage CORN (phytotoxicity rating, scale 0-100) ([10]; 250 g ai/ha): 90 | Pre-emerge crop damage RICE (phytotoxicity rating, scale 0-100) ([11]; 63 g ai/ha): 80 | Pre-emerge crop damage RICE (phytotoxicity rating, scale 0-100) ([11]; 250 g ai/ha): 95 | Post-emerge Herbicidal Activity ECHCG ([12]; 63 g ai/ha): 0 | Post-emerge Herbicidal Activity ECHCG ([12]; 250 g ai/ha): 30 | Post-emerge Herbicidal Activity AMBEL ([13]; 63 g ai/ha): 0 | Post-emerge Herbicidal Activity AMBEL ([13]; 250 g ai/ha): 50 | Post-emerge Herbicidal Activity SETVI ([14]; 63 g ai/ha): 0 | Post-emerge Herbicidal Activity SETVI ([14]; 250 g ai/ha): 20 | Post-emerge Herbicidal Activity IPOHE ([15]; 63 g ai/ha): 95 | Post-emerge Herbicidal Activity IPOHE ([15]; 250 g ai/ha): 90 | Post-emerge Herbicidal Activity SORHA ([16]; 63 g ai/ha): 0 | Post-emerge Herbicidal Activity SORHA ([16]; 250 g ai/ha): 0 | Post-emerge Herbicidal Activity CHEAL ([17]; 63 g ai/ha): 20 | Post-emerge Herbicidal Activity CHEAL ([17]; 250 g ai/ha): 50 | Post-emerge Herbicidal Activity DIGSA ([18]; 63 g ai/ha): 0 | Post-emerge Herbicidal Activity DIGSA ([18]; 250 g ai/ha): 0 | Post-emerge Herbicidal Activity AMARE ([19]; 63 g ai/ha): 10 | Post-emerge Herbicidal Activity AMARE ([19]; 250 g ai/ha): 10 | Post-emerge Herbicidal Activity CASOB ([20]; 63 g ai/ha): 0 | Post-emerge Herbicidal Activity CASOB ([20]; 250 g ai/ha): 0 | Post-emerge Herbicidal Activity ABUTH ([21]; 63 g ai/ha): 70 | Post-emerge Herbicidal Activity ABUTH ([21]; 250 g ai/ha): 100 | Post-emerge Herbicidal Activity CORN (crop damage) ([22]; 63 g ai/ha): 0 | Post-emerge Herbicidal Activity CORN (crop damage) ([22]; 250 g ai/ha): 0 | Post-emerge Herbicidal Activity RICE (crop damage) ([23]; 63 g ai/ha): 10 | Post-emerge Herbicidal Activity RICE (crop damage) ([23]; 250 g ai/ha): 40
